Assay results from ChEMBL document CHEMBL5390317, “Novel Indane-Containing NBTIs with Potent Anti-Gram-Negative Activity and Minimal hERG Inhibition” (ACS Med Chem Lett, 2023).
Values after ≈ are worked out from the molar mass of the structure shown. Active and inactive are the calls of the source. No cut-off for these calls is given here.

Assays:
[1] = Drug excretion in Wistar-Han rat urine assessed as parent compound remaining at 3 mg/kg, iv administered upto 48 hrs by LC-MS/MS method; format: ADME, organism-based; settings: read-out: Drug excretion
[2] = test system: Pseudomonas aeruginosa; experiment: Bactericidal effect against pseudomonas aeruginosa ATCC 27853 infected in neutropenic CD-1 lung infection mouse model assessed as reduction in colony forming unit in lung at 45 mg/kg, sc TID administered at […] interval for 24 hrs; format: functional
[3] = Protein binding in rat plasma assessed as free fraction; format: ADME, cell-free
[4] = Inhibition of Escherichia coli topoisomerase 4 incubated for 120 mins by Transcreener ADP2 FI assay
[5] = test system: Escherichia coli; experiment: Antibacterial activity against Escherichia coli ATCC 25922 assessed as inhibition in bacterial growth incubated for 20 to 24 hrs by CLSI based broth microdilution method; format: functional; settings: time 20-24 hrs
[6] = test system: Pseudomonas aeruginosa; experiment: Antibacterial activity against Pseudomonas aeruginosa NCTC 13437 assessed as inhibition in bacterial growth incubated for 20 to 24 hrs by CLSI based broth microdilution method; format: functional; settings: Pseudomonas aeruginosa, NCTC 13437, time 20-24 hrs; read-out: MIC
[7] = test system: Klebsiella pneumoniae; experiment: Antibacterial activity against Klebsiella pneumoniae ATCC 10031 assessed as inhibition in bacterial growth incubated for 20 to 24 hrs by CLSI based broth microdilution method; format: functional; settings: time 20-24 hrs
[8] = target: T1, hERG (KCNH2) (Homo sapiens, UniProt Q12809); experiment: Inhibition of hERG potassium channel expressed in CHO cells at 10 uM by electrophysiological patch clamp assay relative to control; format: toxicity, cell-based; settings: CHO cells expressing hERG
T1 sequence (Q12809 whole entry): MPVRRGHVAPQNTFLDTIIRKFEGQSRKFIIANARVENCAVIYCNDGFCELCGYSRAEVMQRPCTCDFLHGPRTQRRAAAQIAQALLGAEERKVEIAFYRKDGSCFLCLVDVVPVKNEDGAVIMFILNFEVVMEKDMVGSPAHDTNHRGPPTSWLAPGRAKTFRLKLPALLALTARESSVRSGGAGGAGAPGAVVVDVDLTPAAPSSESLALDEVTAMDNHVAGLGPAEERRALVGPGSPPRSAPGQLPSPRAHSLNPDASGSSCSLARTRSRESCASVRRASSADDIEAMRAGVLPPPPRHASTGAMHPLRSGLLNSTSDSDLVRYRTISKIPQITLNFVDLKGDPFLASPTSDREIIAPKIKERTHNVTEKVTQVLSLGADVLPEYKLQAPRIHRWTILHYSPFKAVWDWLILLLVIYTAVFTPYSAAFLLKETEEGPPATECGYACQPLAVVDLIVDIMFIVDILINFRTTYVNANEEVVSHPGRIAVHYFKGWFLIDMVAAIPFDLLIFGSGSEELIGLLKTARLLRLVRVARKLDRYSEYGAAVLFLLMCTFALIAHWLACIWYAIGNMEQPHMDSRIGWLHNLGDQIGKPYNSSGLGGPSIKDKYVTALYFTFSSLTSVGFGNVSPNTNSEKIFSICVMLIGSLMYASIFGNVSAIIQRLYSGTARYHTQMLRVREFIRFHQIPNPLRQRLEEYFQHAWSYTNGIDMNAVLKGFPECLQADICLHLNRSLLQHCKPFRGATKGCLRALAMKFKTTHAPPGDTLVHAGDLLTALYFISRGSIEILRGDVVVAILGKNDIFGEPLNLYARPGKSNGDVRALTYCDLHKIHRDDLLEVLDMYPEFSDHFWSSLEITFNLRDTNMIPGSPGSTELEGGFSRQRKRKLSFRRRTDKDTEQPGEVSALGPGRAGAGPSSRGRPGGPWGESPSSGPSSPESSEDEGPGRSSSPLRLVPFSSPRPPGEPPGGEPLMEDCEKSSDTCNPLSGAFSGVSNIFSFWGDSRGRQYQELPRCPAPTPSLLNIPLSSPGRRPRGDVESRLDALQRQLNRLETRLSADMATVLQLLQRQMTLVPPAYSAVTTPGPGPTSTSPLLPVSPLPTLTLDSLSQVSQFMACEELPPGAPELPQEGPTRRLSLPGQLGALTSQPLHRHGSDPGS

[9] = target: DNA gyrase (Escherichia coli, UniProt P0AES4+P0AES6); experiment: Inhibition of Escherichia coli DNA gyrase incubated for 80 mins by Transcreener ADP2 FI assay; format: protein-complex assay
[10] = Cytotoxicity against HEK293 cells; format: toxicity, cell-based; settings: human
[11] = target: CYP3A4 (Homo sapiens, UniProt P08684); experiment: Inhibition of CYP3A4 (unknown origin) at 10 uM relative to control; format: ADME
Sequence of CYP3A4 (P08684 whole entry): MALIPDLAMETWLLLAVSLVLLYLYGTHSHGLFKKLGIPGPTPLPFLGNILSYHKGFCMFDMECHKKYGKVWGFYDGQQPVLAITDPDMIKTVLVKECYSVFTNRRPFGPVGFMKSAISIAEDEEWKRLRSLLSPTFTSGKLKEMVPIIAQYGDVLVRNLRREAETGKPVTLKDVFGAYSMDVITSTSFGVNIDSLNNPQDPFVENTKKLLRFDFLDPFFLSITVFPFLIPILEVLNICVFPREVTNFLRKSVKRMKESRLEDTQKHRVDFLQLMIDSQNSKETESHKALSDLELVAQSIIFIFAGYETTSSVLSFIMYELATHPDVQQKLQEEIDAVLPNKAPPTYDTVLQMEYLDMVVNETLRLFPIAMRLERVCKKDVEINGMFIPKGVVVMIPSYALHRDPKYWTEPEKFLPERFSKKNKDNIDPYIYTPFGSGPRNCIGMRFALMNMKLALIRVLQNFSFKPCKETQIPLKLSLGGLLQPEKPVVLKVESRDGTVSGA

[12] = test system: Escherichia coli; experiment: Antibacterial activity against Escherichia coli K-12 BW25113 assessed as inhibition in bacterial growth incubated for 20 to 24 hrs by CLSI based broth microdilution method; format: functional; settings: Escherichia coli, K-12 BW25113, time 20-24 hrs; read-out: MIC
[13] = test system: Klebsiella pneumoniae; experiment: Antibacterial activity against Klebsiella pneumoniae ATCC 700603 assessed as inhibition in bacterial growth incubated for 20 to 24 hrs by CLSI based broth microdilution method; format: functional; settings: Klebsiella pneumoniae, ATCC 700603, time 20-24 hrs; read-out: MIC
[14] = test system: Pseudomonas aeruginosa; experiment: Antibacterial activity against pseudomonas aeruginosa ATCC 27853 infected in neutropenic CD-1 lung infection mouse model assessed as reduction in colony forming unit in lung at 45 mg/kg, sc TID administered for 24 hrs; format: functional, organism-based
[15] = Stability in rat microsome; format: ADME; settings: microsomes
[16] = Stability in human hepatocyte; format: ADME, cell-based; settings: hepatocytes
[17] = test system: Acinetobacter baumannii; experiment: Antibacterial activity against Acinetobacter baumannii ATCC 51432 assessed as inhibition in bacterial growth incubated for 20 to 24 hrs by CLSI based broth microdilution method; format: functional; settings: Acinetobacter baumannii, ATCC 51432, time 20-24 hrs; read-out: MIC
[18] = test system: Klebsiella pneumoniae; experiment: Antibacterial activity against Klebsiella pneumoniae ATCC BAA-1705 assessed as inhibition in bacterial growth incubated for 20 to 24 hrs by CLSI based broth microdilution method; format: functional; settings: time 20-24 hrs
[19] = Stability in mouse microsome; format: ADME; settings: microsomes
[20] = test system: Acinetobacter baumannii; experiment: Antibacterial activity against Acinetobacter baumannii ATCC BAA-747 assessed as inhibition in bacterial growth incubated for 20 to 24 hrs by CLSI based broth microdilution method; format: functional; settings: Acinetobacter baumannii, ATCC BAA-747, time 20-24 hrs; read-out: MIC
[21] = test system: Escherichia coli; experiment: Antibacterial activity against Escherichia coli ATCC BAA-2340 assessed as inhibition in bacterial growth incubated for 20 to 24 hrs by CLSI based broth microdilution method; format: functional; settings: Escherichia coli, ATCC BAA-2340, time 20-24 hrs; read-out: MIC
[22] = test system: Staphylococcus aureus; experiment: Antibacterial activity against Staphylococcus aureus ATCC BAA-1556 assessed as inhibition in bacterial growth incubated for 20 to 24 hrs by CLSI based broth microdilution method; format: functional; settings: Staphylococcus aureus, ATCC BAA-1556, time 20-24 hrs; read-out: MIC
[23] = target: CYP2C9 (Homo sapiens, UniProt P11712); experiment: Inhibition of CYP2C9 (unknown origin) at 10 uM relative to control; format: ADME
Sequence of CYP2C9 (P11712 whole entry): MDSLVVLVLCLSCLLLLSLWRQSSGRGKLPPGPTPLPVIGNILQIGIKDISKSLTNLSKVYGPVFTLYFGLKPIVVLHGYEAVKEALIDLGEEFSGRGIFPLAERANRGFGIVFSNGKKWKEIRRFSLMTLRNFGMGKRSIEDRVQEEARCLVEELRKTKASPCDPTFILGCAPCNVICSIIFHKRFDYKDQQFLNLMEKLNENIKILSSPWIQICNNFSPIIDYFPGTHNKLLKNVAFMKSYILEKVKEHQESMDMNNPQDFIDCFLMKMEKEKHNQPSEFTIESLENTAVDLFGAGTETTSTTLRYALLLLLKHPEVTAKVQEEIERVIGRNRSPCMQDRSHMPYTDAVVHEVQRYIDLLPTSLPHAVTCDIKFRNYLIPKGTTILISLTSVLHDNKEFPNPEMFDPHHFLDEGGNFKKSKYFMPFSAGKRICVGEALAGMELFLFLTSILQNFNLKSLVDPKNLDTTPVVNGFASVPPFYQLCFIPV

[24] = target: CYP2D6 (Homo sapiens, UniProt P10635); experiment: Inhibition of CYP2D6 (unknown origin) at 10 uM relative to control; format: ADME
Sequence of CYP2D6 (P10635 whole entry): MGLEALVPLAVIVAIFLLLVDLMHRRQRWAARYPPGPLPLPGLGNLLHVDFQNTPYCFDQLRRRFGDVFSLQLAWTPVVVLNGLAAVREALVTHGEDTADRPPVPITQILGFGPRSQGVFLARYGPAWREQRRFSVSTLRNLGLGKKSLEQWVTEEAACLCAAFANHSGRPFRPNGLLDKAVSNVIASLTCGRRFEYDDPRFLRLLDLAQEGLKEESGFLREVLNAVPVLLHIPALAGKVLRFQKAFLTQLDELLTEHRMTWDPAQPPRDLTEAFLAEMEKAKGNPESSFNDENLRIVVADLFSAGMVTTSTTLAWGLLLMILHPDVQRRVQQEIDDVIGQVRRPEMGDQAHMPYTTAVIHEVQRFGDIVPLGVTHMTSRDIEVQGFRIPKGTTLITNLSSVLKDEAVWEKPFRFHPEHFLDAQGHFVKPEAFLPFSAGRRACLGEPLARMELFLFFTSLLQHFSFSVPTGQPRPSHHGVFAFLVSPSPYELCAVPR

[25] = Stability in rat hepatocyte; format: ADME, cell-based; settings: hepatocytes
[26] = test system: Pseudomonas aeruginosa; experiment: Bacteriostatic effect against pseudomonas aeruginosa ATCC 27853 infected in neutropenic CD-1 lung infection mouse model assessed as reduction in colony forming unit at 15 mg/kg, sc TID administered at 8 hrs interval for 24 hrs; format: functional, organism-based
[27] = Protein binding in human plasma assessed as free fraction; format: ADME, cell-free
[28] = Stability in human microsome; format: ADME; settings: microsomes
[29] = test system: Escherichia coli; experiment: Antibacterial activity against Escherichia coli ATCC 35218 assessed as inhibition in bacterial growth incubated for 20 to 24 hrs by CLSI based broth microdilution method; format: functional; settings: Escherichia coli, ATCC 35218, time 20-24 hrs; read-out: MIC
[30] = test system: Escherichia coli; experiment: Antibacterial activity against Escherichia coli K-12 BW25113 deltaTolC assessed as inhibition in bacterial growth incubated for 20 to 24 hrs by CLSI based broth microdilution method; format: functional; settings: time 20-24 hrs
[31] = test system: Pseudomonas aeruginosa; experiment: Antibacterial activity against Pseudomonas aeruginosa NCTC 11451 assessed as inhibition in bacterial growth incubated for 20 to 24 hrs by CLSI based broth microdilution method; format: functional; settings: Pseudomonas aeruginosa, NCTC 11451, time 20-24 hrs; read-out: MIC
[32] = test system: Pseudomonas aeruginosa; experiment: Antibacterial activity against Pseudomonas aeruginosa ATCC 27853 assessed as inhibition in bacterial growth incubated for 20 to 24 hrs by CLSI based broth microdilution method; format: functional; settings: time 20-24 hrs
[33] = Stability in mouse hepatocyte; format: ADME, cell-based; settings: hepatocytes
[34] = Aqueous solubility of the compound at pH 6.5 at > 0.5 mg/ml; format: physicochemical; settings: buffer
[35] = target: T1, hERG (KCNH2); experiment: (§1) Inhibition of hERG potassium channel expressed in CHO cells by electrophysiological patch clamp assay; format: toxicity, cell-based; settings: human, CHO cells expressing hERG
[36] = target: Voltage-gated inwardly rectifying potassium channel KCNH2 (Homo sapiens, UniProt Q12809); experiment: as §1; format: toxicity, cell-based
Sequence of Voltage-gated inwardly rectifying potassium channel KCNH2 (Q12809 whole entry): as the sequence (Q12809 whole entry) above

[37] = test system: Pseudomonas aeruginosa; experiment: Antibacterial activity against pseudomonas aeruginosa ATCC 27853 infected in neutropenic CD-1 lung infection mouse model assessed as reduction in colony forming unit in lung at 15 mg/kg, sc TID administered at 8 hrs interval for 24 hrs; format: functional, organism-based
[38] = target: T1, hERG (KCNH2); experiment: Inhibition of hERG potassium channel expressed in CHO cells at 1 uM by electrophysiological patch clamp assay relative to control; format: toxicity, cell-based; settings: CHO cells expressing hERG
[39] = test system: Staphylococcus aureus; experiment: Antibacterial activity against Staphylococcus aureus ATCC 29213 assessed as inhibition in bacterial growth incubated for 20 to 24 hrs by CLSI based broth microdilution method; format: functional; settings: Staphylococcus aureus, ATCC 29213; time 20-24 hrs; read-out: MIC
[40] = test system: Acinetobacter baumannii; experiment: Antibacterial activity against Acinetobacter baumannii ATCC 19606 assessed as inhibition in bacterial growth incubated for 20 to 24 hrs by CLSI based broth microdilution method; format: functional; settings: time 20-24 hrs
[41] = test system: Klebsiella pneumoniae; experiment: Antibacterial activity against Klebsiella pneumoniae ATCC BAA-2146 assessed as inhibition in bacterial growth incubated for 20 to 24 hrs by CLSI based broth microdilution method; format: functional; settings: Klebsiella pneumoniae, ATCC BAA-2146, time 20-24 hrs; read-out: MIC
[42] = Protein binding in mouse plasma assessed as free fraction; format: ADME, cell-free

dose excreted at 48 h [1]: 5%
fraction unbound [3]: 0.32
IC50 [4]: 30 nM
MIC [5]: 0.125 µg/mL (≈ 0.244 µM)
MIC [6]: 1 µg/mL (≈ 1.95 µM)
MIC [7]: ≤ 0.06 µg/mL
IC50 [9]: 60 nM
inhibition at 10 µM [11]: < 25%
MIC [12]: 0.06 µg/mL (≈ 0.117 µM)
MIC [13]: 1 µg/mL (≈ 1.95 µM)
Stability [15]: Stable
Stability [16]: Stable
MIC [17]: 2 µg/mL (≈ 3.9 µM)
MIC [18]: 1 µg/mL (≈ 1.95 µM)
Stability [19]: Stable
MIC [20]: 0.5 µg/mL (≈ 0.976 µM)
MIC [21]: 0.25 µg/mL (≈ 0.488 µM)
MIC [22]: 0.5 µg/mL (≈ 0.976 µM)
inhibition at 10 µM [23]: < 25%
inhibition at 10 µM [24]: < 25%
Stability [25]: Stable
fraction unbound [27]: 0.4
Stability [28]: Stable
MIC [29]: 0.125 µg/mL (≈ 0.244 µM)
MIC [30]: ≤ 0.06 µg/mL
MIC [31]: 1 µg/mL (≈ 1.95 µM)
MIC [32]: 0.25 µg/mL (≈ 0.488 µM)
Stability [33]: Stable
solubility [34]: Soluble
MIC [39]: 0.125 µg/mL (≈ 0.244 µM)
MIC [40]: 2 µg/mL (≈ 3.9 µM)
MIC [41]: 2 µg/mL (≈ 3.9 µM)
fraction unbound [42]: 0.4
Compound: NC1(COc2cc(F)c3c(c2)CC(CNCCC2CN(c4cnc5c(n4)NC(=O)CO5)C(=O)O2)C3)CC1 (configuration not stated)
Activity [2]: 2.6 log10CFU
inhibition at 10 µM [8]: < 1%
CC50 [10]: > 100000 nM
Activity [14]: Active
Activity [26]: inactive
IC20 [35]: > 10000 nM
IC50 [36]: > 20000 nM
Activity [37]: Active
inhibition at 1 µM [38]: < 1%
